Laboratory results as given in patent US20250144138A1, “Chimeric Antigen Receptor Therapies and Vasoactive Intestinal Peptide Receptor Antagonists” (Emory University, priority 2021, published 2025).

System: CAR T cells
Assay: Proliferation of CAR T cells co-cultured with antigen-relevant target cells, treated with exogenous VIP and/or VIPR antagonist
Assay type: cell-based
Procedure: Experiments were performed to determine whether antigen-stimulation increases VPAC1+ CAR T cells and VIPR antagonism enhances CAR T cell proliferation in the presence of VIP. CAR T cells were co-cultured alone or with antigen-relevant or antigen-irrelevant […] for 24 hrs. VPAC1 and VPAC2 expression was evaluated via flow cytometry. […] CAR T cells co-cultured with antigen-relevant target cells were treated with exogenous VIP and/or VIPR antagonist. Proliferation of CAR T cells is suppressed by VIP and rescued by exogenous VIPR antagonist (FIGS. 2A-2C).

Substance: vasoactive intestinal peptide [VIP]
- Proliferation of CAR T cells: suppressed
